Source: patent US20250034212A1, “PEPTIDE” (PEPTIDREAM INC., priority 2021, published 2025)
Starred links: 1 amine or outer side, 2 acyl side, 3 side chain; linkers in the order of their positions; H or OH if unused. Positions of bridges follow the written chain, without caps; N, C: chain ends. Non-standard residues stand in square brackets, D forms with d. Residues, ends and D or L forms follow the SMILES beside them. Groups on a side chain read outwards from the residue. *: point of attachment. Meglumine = CN(C[C@H](O)[C@@H](O)[C@H](O)[C@H](O)CO)*; Trp(7-aza) = N[C@@H](Cc1c[nH]c2ncccc12)C(=O)O; Piperazinyl(4-CH2COOH) = O=C(O)CN1CCN(*)CC1; 1Nal = N[C@@H](Cc1cccc2ccccc12)C(=O)O; Gly(NCH2CH2Ph) = O=C(O)CNCCc1ccccc1; 4Pal = N[C@@H](Cc1ccncc1)C(=O)O; CO = O=C([*:1])[*:2]

Target: T1, recombinant human TGF-β1 (Homo sapiens, UniProt P01137)
T1 construct: purchased R&D systems
Assay: SBE reporter assay in SBE reporter-HEK293 cells, TGF-β1 stimulation
Format: cell-based
Details: TGF-β1 0.13 nM, 18 hours; for inhibition at 75 pM: peptide 0.075 nM; for inhibition at 0.00075 µM: peptide 0.75 nM; for inhibition at 0.0075 µM: peptide 7.5 nM; for inhibition at 0.075 µM: peptide 75.0 nM; for inhibition at 62 pM: peptide 0.062 nM; for inhibition at 0.000185 µM: peptide 0.185 nM; for inhibition at 0.00056 µM: peptide 0.56 nM; for inhibition at 0.0017 µM: peptide 1.7 nM; for inhibition at 0.005 µM: peptide 5.0 nM; for inhibition at 0.015 µM: peptide 15.0 nM
Source text: The inhibitory activity of the peptide can be calculated without limitation while the maximum signal induced by TGF-β is set to 0% inhibition and no stimulation is set to 100% inhibition. When the peptide is used at an appropriate concentration, for example, at the optimal concentration, the inhibitory activity is not limited but the inhibition is 5% or more, 10% or more, 20% or more, 30% or more, 40% or more, 50% or more, 60% or more, 70% or more, 80% or more, or 90% or more.
In this Example, the TGF-β1 inhibitory activity of the peptide of the present invention consisting of the amino acid sequence set forth in SEQ ID NOs: 2-33 synthesized in Examples 1 to 5 and 7 was evaluated by an SBE reporter assay using the SBE reporter-HEK293 cell system (BP Bioscience) as follows.
SBE reporter-HEK293 cells were cultured in E-MEM (Wako) containing 10% FBS (Sigma). The cells were detached using Accutase (Innovative Cell Technologies), suspended in E-MEM containing 0.5% FBS, seeded onto a 96-well plate(s) at a concentration of 45,000 cells per well, and cultured overnight. The next day, the peptide was added and allowed to stand for 20 min, and recombinant human TGF-β1 (R&D systems) or recombinant human TGF-β2 (R&D systems) was then added at 0.13 nM and cultured for 18 hours.
Thereafter, luciferase assay ONE-Glo reagent was added to each well and the plate was shaken for 5 min. A SpectraMax Paradigm multimode microplate reader (Molecular Devices) was then used for signal detection. The obtained signals were analyzed by GraphPad Prism. The inhibitory activity of the peptide was calculated while the maximum signal induced by TGF-β was set to 0% inhibition and no stimulation was set to 100% inhibition.

T1 sequence (P01137 279-390 limits assumed): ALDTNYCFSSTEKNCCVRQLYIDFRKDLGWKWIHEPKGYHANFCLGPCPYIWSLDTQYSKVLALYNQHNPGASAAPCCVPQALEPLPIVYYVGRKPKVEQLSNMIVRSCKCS

inhibition at 75 pM | inhibition at 0.00075 µM | inhibition at 0.0075 µM | inhibition at 0.075 µM | inhibition at 62 pM | inhibition at 0.000185 µM | inhibition at 0.00056 µM | inhibition at 0.0017 µM | inhibition at 0.005 µM | inhibition at 0.015 µM | Compound
2.7% | 53% | 94.8% | 99.6% | – | – | – | – | – | – | CC(C)[C@@H]1NC(=O)CN(CCc2ccccc2)C(=O)[C@H](CC(=O)O)NC(=O)[C@H](CC(=O)O)NC(=O)[C@H](Cc2ccncc2)NC(=O)[C@H](C(C)C)NC(=O)[C@H](CC(N)=O)NC(=O)[C@H](C(C)C)NC(=O)[C@H](C(C)C)NC(=O)[C@H](Cc2cccc3ccccc23)NC(=O)[C@H](Cc2ccccc2)NC(=O)CSC[C@@H](C(=O)NCC(N)=O)NC(=O)[C@H](C(C)C)NC(=O)[C@H](Cc2c[nH]cn2)NC(=O)[C@H](Cc2ccncc2)NC(=O)[C@H](Cc2cccc3ccccc23)NC1=O [TGFb1_009] ({CH2CO}-F[1Nal]VVNV[4Pal]DD[Gly(NCH2CH2Ph)]V[1Nal][4Pal]HVCG-NH2; thioether N-16)
0.1% | 37.5% | 83.5% | 96.7% | – | – | – | – | – | – | CC(C)[C@@H]1NC(=O)CN(CCc2ccccc2)C(=O)[C@H](CC(=O)O)NC(=O)[C@H](CC(=O)O)NC(=O)[C@H](Cc2ccncc2)NC(=O)[C@H](C(C)C)NC(=O)[C@H](CC(N)=O)NC(=O)[C@H](CCCCN)NC(=O)[C@H](C(C)C)NC(=O)[C@H](Cc2cccc3ccccc23)NC(=O)[C@H](Cc2ccccc2)NC(=O)CSC[C@@H](C(=O)NCC(N)=O)NC(=O)[C@H](C(C)C)NC(=O)[C@H](Cc2c[nH]cn2)NC(=O)[C@H](Cc2ccc(O)cc2)NC(=O)[C@H](Cc2cccc3ccccc23)NC1=O [TGFb1_007] ({CH2CO}-F[1Nal]VKNV[4Pal]DD[Gly(NCH2CH2Ph)]V[1Nal]YHVCG-NH2; thioether N-16)
6.1% | 61% | 97.6% | 100% | – | – | – | – | – | – | CC(C)[C@@H]1NC(=O)CN(CCc2ccccc2)C(=O)[C@H](CC(=O)O)NC(=O)[C@H](CC(=O)O)NC(=O)[C@H](Cc2ccncc2)NC(=O)[C@H](C(C)C)NC(=O)[C@H](CC(N)=O)NC(=O)[C@H](C(C)C)NC(=O)[C@H](C(C)C)NC(=O)[C@H](Cc2cccc3ccccc23)NC(=O)[C@H](Cc2ccccc2)NC(=O)CSC[C@@H](C(=O)NCC(N)=O)NC(=O)[C@H](CCCCNC(=O)N(C)C[C@H](O)[C@@H](O)[C@H](O)[C@H](O)CO)NC(=O)[C@H](Cc2c[nH]cn2)NC(=O)[C@H](Cc2ccc(O)cc2)NC(=O)[C@H](Cc2cccc3ccccc23)NC1=O [TGFb1_016] ({CH2CO}-F[1Nal]VVNV[4Pal]DD[Gly(NCH2CH2Ph)]V[1Nal]YHK([CO-Meglumine])CG-NH2; thioether N-16)
21.7% | 60.2% | 97.2% | 100% | – | – | – | – | – | – | CC(C)[C@@H]1NC(=O)CN(CCc2ccccc2)C(=O)[C@H](CCCCNC(=O)N2CCN(CC(=O)O)CC2)NC(=O)[C@H](CC(=O)O)NC(=O)[C@H](Cc2ccncc2)NC(=O)[C@H](C(C)C)NC(=O)[C@H](CC(N)=O)NC(=O)[C@H](C(C)C)NC(=O)[C@H](C(C)C)NC(=O)[C@H](Cc2c[nH]c3ncccc23)NC(=O)[C@H](Cc2ccccc2)NC(=O)CSC[C@@H](C(=O)NCC(N)=O)NC(=O)[C@H](C(C)C)NC(=O)[C@H](Cc2c[nH]cn2)NC(=O)[C@H](Cc2ccc(O)cc2)NC(=O)[C@H](Cc2cccc3ccccc23)NC1=O [TGFb1_017] ({CH2CO}-F[Trp(7-aza)]VVNV[4Pal]DK([CO-Piperazinyl(4-CH2COOH)])[Gly(NCH2CH2Ph)]V[1Nal]YHVCG-NH2; thioether N-16)
– | – | – | – | 12% | 16.9% | 32.4% | 63.7% | 85.8% | 96.8% | CC(C)[C@@H]1NC(=O)CN(CCc2ccccc2)C(=O)[C@H](CCC(=O)O)NC(=O)[C@H](CC(=O)O)NC(=O)[C@H](Cc2ccncc2)NC(=O)[C@H](C(C)C)NC(=O)[C@H](CC(N)=O)NC(=O)[C@H](CCCCNC(=O)N(C)C[C@H](O)[C@@H](O)[C@H](O)[C@H](O)CO)NC(=O)[C@H](C(C)C)NC(=O)[C@H](Cc2cccc3ccccc23)NC(=O)[C@H](Cc2ccccc2)NC(=O)CSC[C@@H](C(=O)NCC(N)=O)NC(=O)[C@H](CCC(=O)O)NC(=O)[C@H](Cc2c[nH]cn2)NC(=O)[C@H](Cc2ccc(O)cc2)NC(=O)[C@H](Cc2cccc3ccccc23)NC1=O [TGFb1_029] ({CH2CO}-F[1Nal]VK([CO-Meglumine])NV[4Pal]DE[Gly(NCH2CH2Ph)]V[1Nal]YHECG-NH2; thioether N-16)
0.4% | 47% | 90.8% | 98.9% | – | – | – | – | – | – | CC(C)[C@@H]1NC(=O)CN(CCc2ccccc2)C(=O)[C@H](CC(=O)O)NC(=O)[C@H](CC(=O)O)NC(=O)[C@H](Cc2ccc(O)cc2)NC(=O)[C@H](C(C)C)NC(=O)[C@H](CC(N)=O)NC(=O)[C@H](C(C)C)NC(=O)[C@H](C(C)C)NC(=O)[C@H](Cc2c[nH]c3ncccc23)NC(=O)[C@H](Cc2ccccc2)NC(=O)CSC[C@@H](C(=O)NCC(N)=O)NC(=O)[C@H](C(C)C)NC(=O)[C@H](Cc2c[nH]cn2)NC(=O)[C@H](Cc2ccc(O)cc2)NC(=O)[C@H](Cc2cccc3ccccc23)NC1=O [TGFb1_005] ({CH2CO}-F[Trp(7-aza)]VVNVYDD[Gly(NCH2CH2Ph)]V[1Nal]YHVCG-NH2; thioether N-16)
1.6% | 65.2% | 97.3% | 98.8% | – | – | – | – | – | – | CC(C)[C@@H]1NC(=O)CN(CCc2ccccc2)C(=O)[C@H](CC(=O)O)NC(=O)[C@H](CC(=O)O)NC(=O)[C@H](Cc2ccc(O)cc2)NC(=O)[C@H](C(C)C)NC(=O)[C@H](CC(N)=O)NC(=O)[C@H](C(C)C)NC(=O)[C@H](C(C)C)NC(=O)[C@H](Cc2c[nH]c3ccccc23)NC(=O)[C@H](Cc2ccccc2)NC(=O)CSC[C@@H](C(=O)NCC(N)=O)NC(=O)[C@H](C(C)C)NC(=O)[C@H](Cc2c[nH]cn2)NC(=O)[C@H](Cc2ccc(O)cc2)NC(=O)[C@H](Cc2cccc3ccccc23)NC1=O [TGFb1_003] ({CH2CO}-FWVVNVYDD[Gly(NCH2CH2Ph)]V[1Nal]YHVCG-NH2; thioether N-16)
– | – | – | – | 0.94% | 6.17% | 20.4% | 47.6% | 73.9% | 91.7% | CC(C)[C@@H]1NC(=O)CN(CCc2ccccc2)C(=O)[C@H](CC(=O)O)NC(=O)[C@H](CC(=O)O)NC(=O)[C@H](Cc2ccncc2)NC(=O)[C@H](C(C)C)NC(=O)[C@H](CC(N)=O)NC(=O)[C@H](CCCCNC(=O)N(C)C[C@H](O)[C@@H](O)[C@H](O)[C@H](O)CO)NC(=O)[C@H](C(C)C)NC(=O)[C@H](Cc2cccc3ccccc23)NC(=O)[C@H](Cc2ccccc2)NC(=O)CSC[C@@H](C(=O)NCC(N)=O)NC(=O)[C@H](CCC(=O)O)NC(=O)[C@H](Cc2c[nH]cn2)NC(=O)[C@H](Cc2ccc(O)cc2)NC(=O)[C@H](Cc2cccc3ccccc23)NC1=O [TGFb1_028] ({CH2CO}-F[1Nal]VK([CO-Meglumine])NV[4Pal]DD[Gly(NCH2CH2Ph)]V[1Nal]YHECG-NH2; thioether N-16)
22.2% | 61% | 97.6% | 99.9% | – | – | – | – | – | – | CC(C)[C@@H]1NC(=O)CN(CCc2ccccc2)C(=O)[C@H](CCCCNC(=O)N(C)C[C@H](O)[C@@H](O)[C@H](O)[C@H](O)CO)NC(=O)[C@H](CC(=O)O)NC(=O)[C@H](Cc2ccncc2)NC(=O)[C@H](C(C)C)NC(=O)[C@H](CC(N)=O)NC(=O)[C@H](C(C)C)NC(=O)[C@H](C(C)C)NC(=O)[C@H](Cc2c[nH]c3ncccc23)NC(=O)[C@H](Cc2ccccc2)NC(=O)CSC[C@@H](C(=O)NCC(N)=O)NC(=O)[C@H](C(C)C)NC(=O)[C@H](Cc2c[nH]cn2)NC(=O)[C@H](Cc2ccc(O)cc2)NC(=O)[C@H](Cc2cccc3ccccc23)NC1=O [TGFb1_018] ({CH2CO}-F[Trp(7-aza)]VVNV[4Pal]DK([CO-Meglumine])[Gly(NCH2CH2Ph)]V[1Nal]YHVCG-NH2; thioether N-16)
– | – | – | – | 2.53% | 9.14% | 28.4% | 59.4% | 84.9% | 95.5% | CC(C)[C@@H]1NC(=O)CN(CCc2ccccc2)C(=O)[C@H](CC(=O)O)NC(=O)[C@H](CC(=O)O)NC(=O)[C@H](Cc2ccncc2)NC(=O)[C@H](C(C)C)NC(=O)[C@H](CC(N)=O)NC(=O)[C@H](C(C)C)NC(=O)[C@H](C(C)C)NC(=O)[C@H](Cc2cccc3ccccc23)NC(=O)[C@H](Cc2ccccc2)NC(=O)CSC[C@@H](C(=O)NCC(N)=O)NC(=O)[C@H](CCC(=O)O)NC(=O)[C@H](Cc2c[nH]cn2)NC(=O)[C@H](Cc2ccc(O)cc2)NC(=O)[C@H](Cc2cccc3ccccc23)NC1=O [TGFb1_027] ({CH2CO}-F[1Nal]VVNV[4Pal]DD[Gly(NCH2CH2Ph)]V[1Nal]YHECG-NH2; thioether N-16)
